From patent publication US20250333406A1, “SULFONYL CYCLIC DERIVATIVES, AND COMPOSITIONS AND METHODS THEREOF” (Lysoway Therapeutics, Inc., priority 2023, published 2025)

System: TFEB
Assay: TFEB Nuclear Translocation Assay
Type: cell-based
Settings: read-out: EC50 of TFEB activation

EC50	SMILES
≤ 1000 nM	CC(C)S(=O)(=O)n1ccc(S(=O)(=O)n2nc(N3CCN(CC(F)(F)F)CC34CC4)c3c(Cl)cc(F)cc32)c1 [Compound 59, 4-chloro-6-fluoro-1-(1-isopropylsulfonylpyrrol-3-yl)sulfonyl-3-[7-(2,2,2-trifluoroethyl)-4,7-diazaspiro[2.5]octan-4-yl]indazole]
≤ 1000 nM	CC(C)S(=O)(=O)c1ccc(S(=O)(=O)n2nc(N3CCN(c4ncc(F)cn4)C[C@@H]3C3CC3)c3c(Cl)cccc32)cc1 [Compound 60, (S)-4-chloro-3-(2-cyclopropyl-4-(5-fluoropyrimidin-2-yl)piperazin-1-yl)-1-((4-(isopropylsulfonyl)phenyl)sulfonyl)-1H-indazole]
≤ 1000 nM	CC(C)S(=O)(=O)c1ccc(S(=O)(=O)n2nc(N3CCCCC3C3CC3)c3c(Cl)cccc32)cc1 (stereo not drawn) [Compound 63, 4-chloro-3-(2-cyclopropyl-1-piperidyl)-1-(4-isopropylsulfonylphenyl) sulfonyl-indazole]
≤ 1000 nM	[2H]c1c([2H])c(S(=O)(=O)n2nc(N3CCN(c4ncc(F)cn4)CC34CC4)c3c(Cl)cccc32)c([2H])c([2H])c1S(=O)(=O)C(C)C [Compound 64, 4-chloro-3-[7-(5-fluoropyrimidin-2-yl)-4,7-diazaspiro [2.5]octan-4-yl]-1-(2,3,5,6-tetradeuterio-4-isopropylsulfonyl-phenyl) sulfonyl-indazole]
≤ 1000 nM	CC(C)S(=O)(=O)c1ccc(S(=O)(=O)n2nc(N3CCN(c4ncccn4)CC34CC4)c3c(Cl)cccc32)cc1 [Compound 65, 4-chloro-1-(4-isopropylsulfonylphenyl) sulfonyl-3-(7-pyrimidin-2-yl-4,7-diazaspiro[2.5]octan-4-yl) indazole]
≤ 1000 nM	CC(C)S(=O)(=O)c1ccc(S(=O)(=O)n2nc(N3CCCCC3C(F)(F)F)c3c(Cl)cccc32)cc1 (stereo not drawn) [Compound 66, 4-chloro-1-(4-isopropylsulfonylphenyl)sulfonyl-3-[2-(trifluoromethyl)-1-piperidyl]indazole]
≤ 1000 nM	CC(C)S(=O)(=O)c1ccc(S(=O)(=O)n2nc(N3CCN(c4ncc(F)cn4)CC3C(F)(F)F)c3c(Cl)cccc32)cc1 (stereo not drawn) [Compound 67, 4-chloro-3-[4-(5-fluoropyrimidin-2-yl)-2-(trifluoromethyl)piperazin-1-yl]-1-(4-isopropylsulfonylphenyl) sulfonyl-indazole]
≤ 1000 nM	CC(C)S(=O)(=O)c1ccc(S(=O)(=O)n2nc(N3CCN(c4ncc(F)cn4)C[C@@H]3C(F)(F)F)c3c(Cl)cccc32)cc1 [Compound 68, 4-chloro-3-[(2R)-4-(5-fluoropyrimidin-2-yl)-2-(trifluoromethyl)piperazin-1-yl]-1-(4-isopropylsulfonylphenyl) sulfonyl-indazole]
≤ 1000 nM	CC(C)S(=O)(=O)c1ccc(S(=O)(=O)n2nc(N3CCN(C(=O)C(F)(F)F)C[C@@H]3C(F)(F)F)c3c(Cl)cccc32)cc1 [Compound 70, 1-[(3R)-4-[4-chloro-1-(4-isopropylsulfonylphenyl)sulfonyl-indazol-3-yl]-3-(trifluoromethyl)piperazin-1-yl]-2,2,2-trifluoro-ethanone]
≤ 1000 nM	CC(C)S(=O)(=O)c1ccc(S(=O)(=O)n2nc(N3CCN(c4ncc(F)cn4)C[C@@H]3C(F)(F)F)c3c(F)cccc32)cc1 [Compound 72, 4-fluoro-3-[(2R)-4-(5-fluoropyrimidin-2-yl)-2-(trifluoromethyl)piperazin-1-yl]-1-(4-isopropylsulfonylphenyl)sulfonyl-indazole]
≤ 1000 nM	CC(C)S(=O)(=O)c1ccc(S(=O)(=O)n2nc(N3CCN(C(=O)C(F)F)CC3C(F)(F)F)c3c(Cl)cccc32)cc1 (stereo not drawn) [Compound 74, 1-[4-[4-chloro-1-(4-isopropylsulfonylphenyl)sulfonyl-indazol-3-yl]-3-(trifluoromethyl)piperazin-1-yl]-2,2-difluoro-ethanone]
≤ 1000 nM	CC(C)S(=O)(=O)c1ccc(S(=O)(=O)n2nc(N3CCN(CC(F)(F)F)CC3C(F)(F)F)c3c(Cl)cccc32)cc1 (stereo not drawn) [Compound 75, 4-chloro-1-(4-isopropylsulfonylphenyl)sulfonyl-3-[4-(2,2,2-trifluoroethyl)-2-(trifluoromethyl)piperazin-1-yl]indazole]
≤ 1000 nM	O=C(N1CCN(c2nn(S(=O)(=O)c3ccc(C(F)F)cc3)c3cccc(Cl)c23)C(C(F)(F)F)C1)C(F)(F)F (stereo not drawn) [Compound 76, 1-[4-[4-chloro-1-[4-(difluoromethyl)phenyl]sulfonyl-indazol-3-yl]-3-(trifluoromethyl)piperazin-1-yl]-2,2,2-trifluoro-ethanone]
≤ 1000 nM	O=S(=O)(c1ccc(C(F)F)cc1)n1nc(N2CCN(c3ncc(F)cn3)CC2C(F)(F)F)c2c(Cl)cccc21 (stereo not drawn) [Compound 77, 4-chloro-1-[4-(difluoromethyl)phenyl]sulfonyl-3-[4-(5-fluoropyrimidin-2-yl)-2-(trifluoromethyl)piperazin-1-yl]indazole]
≤ 1000 nM	O=S(=O)(c1ccc(C(F)F)cc1)n1nc(N2CCN(c3ncc(F)cn3)CC23CC3)c2c(Cl)cccc21 [Compound 78, 4-chloro-1-[4-(difluoromethyl)phenyl]sulfonyl-3-[7-(5-fluoropyrimidin-2-yl)-4,7-diazaspiro [2.5]octan-4-yl]indazole]
≤ 1000 nM	CC(C)S(=O)(=O)c1ccc(S(=O)(=O)n2nc(N3CCC(Cl)=CC3C(F)(F)F)c3c(Cl)cccc32)cc1 (stereo not drawn) [Compound 79, 4-chloro-3-[4-chloro-6-(trifluoromethyl)-3,6-dihydro-2H-pyridin-1-yl]-1-(4-isopropylsulfonylphenyl) sulfonyl-indazole]
≤ 1000 nM	CC(C)S(=O)(=O)c1ccc(S(=O)(=O)n2nc(N3CCC(Cl)=C[C@@H]3C(F)(F)F)c3c(Cl)cccc32)cc1 [Compound 80, 4-chloro-3-[(6R)-4-chloro-6-(trifluoromethyl)-3,6-dihydro-2H-pyridin-1-yl]-1-(4-isopropylsulfonylphenyl)sulfonyl-indazole]
≤ 1000 nM	CC(C)S(=O)(=O)c1ccc(S(=O)(=O)n2nc(N3CCC(Cl)=C[C@H]3C(F)(F)F)c3c(Cl)cccc32)cc1 [Compound 81, 4-chloro-3-[(6S)-4-chloro-6-(trifluoromethyl)-3,6-dihydro-2H-pyridin-1-yl]-1-(4-isopropylsulfonylphenyl)sulfonyl-indazole]
≤ 1000 nM	CC(C)S(=O)(=O)c1ccc(S(=O)(=O)n2nc(N3CC=C(Cl)C[C@@H]3C(F)(F)F)c3c(Cl)cccc32)cc1 [Compound 82, 4-chloro-3-[(2R)-4-chloro-2-(trifluoromethyl)-3,6-dihydro-2H-pyridin-1-yl]-1-(4-isopropylsulfonylphenyl)sulfonyl-indazole]
≤ 1000 nM	CC(C)S(=O)(=O)c1ccc(S(=O)(=O)n2nc(N3CCC(F)(F)CC3C(F)(F)F)c3c(Cl)cccc32)cc1 (stereo not drawn) [Compound 85, 4-chloro-3-[4,4-difluoro-2-(trifluoromethyl)-1-piperidyl]-1-(4-isopropylsulfonylphenyl) sulfonyl-indazole]
≥ 10000 nM	CC(F)(F)c1ccc(S(=O)(=O)n2nc(N3CCC4(CCO4)CC34CC4)c3c(Cl)cccc32)cc1 (stereo not drawn) [Compound 88, 11-[4-chloro-1-[4-(1,1-difluoroethyl)phenyl]sulfonyl-indazol-3-yl]-8-oxa-11-azadispiro [2.1.35.33]undecane]
≤ 1000 nM	O=S(=O)(c1ccc(C2(F)COC2)cc1)n1nc(N2CCN(c3ncc(F)cn3)CC23CC3)c2c(Cl)cccc21 [Compound 89, 4-chloro-1-[4-(3-fluorooxetan-3-yl)phenyl]sulfonyl-3-[7-(5-fluoropyrimidin-2-yl)-4,7-diazaspiro [2.5]octan-4-yl]indazole]
≤ 1000 nM	CC(F)(F)c1ccc(S(=O)(=O)n2nc(N3CCN(c4ncc(F)cn4)CC34CC4)c3c(Cl)cc(F)cc32)cc1 [Compound 91, 4-chloro-1-[4-(1,1-difluoroethyl)phenyl]sulfonyl-6-fluoro-3-[7-(5-fluoropyrimidin-2-yl)-4,7-diazaspiro [2.5]octan-4-yl]indazole]
≤ 1000 nM	O=S(=O)(c1ccc(SC(F)F)cc1)n1nc(N2CCN(c3ncc(F)cn3)CC23CC3)c2c(Cl)cccc21 [Compound 93, 4-chloro-1-[4-(difluoromethylsulfanyl)phenyl]sulfonyl-3-[7-(5-fluoropyrimidin-2-yl)-4,7-diazaspiro [2.5]octan-4-yl]indazole]

SMILES	EC50
CC(C)S(=O)(=O)c1ccc(S(=O)(=O)n2nc(N3CCN(c4ncc(F)cn4)CC34CC4)c3c(Cl)cccc32)cc1F [Compound 62, 4-chloro-1-(3-fluoro-4-isopropylsulfonyl-phenyl) sulfonyl-3-[7-(5-fluoropyrimidin-2-yl)-4,7-diazaspiro [2.5]octan-4-yl]indazole]	≤ 1000 nM
CC(C)S(=O)(=O)c1ccc(S(=O)(=O)n2nc(N3CCC(=O)CC3C(F)(F)F)c3c(Cl)cccc32)cc1 (stereo not drawn) [Compound 84, 1-[4-chloro-1-(4-isopropylsulfonylphenyl)sulfonyl-indazol-3-yl]-2-(trifluoromethyl)piperidin-4-one]	≤ 1000 nM
CC(C)S(=O)(=O)c1ccc(S(=O)(=O)n2nc(N3CCC(OC(F)F)CC3C(F)(F)F)c3c(Cl)cccc32)cc1 (stereo not drawn) [Compound 86, 4-chloro-3-[4-(difluoromethoxy)-2-(trifluoromethyl)-1-piperidyl]-1-(4-isopropylsulfonylphenyl) sulfonyl-indazole]	≤ 1000 nM
CC(C)S(=O)(=O)c1ccc(S(=O)(=O)n2nc(N3CCC(OC(F)F)CC34CC4)c3c(Cl)cccc32)cc1 (stereo not drawn) [Compound 87, 4-chloro-3-[7-(difluoromethoxy)-4-azaspiro [2.5]octan-4-yl]-1-(4-isopropylsulfonylphenyl) sulfonyl-indazole]	≤ 1000 nM
CC(C)C(F)(F)c1ccc(S(=O)(=O)n2nc(N3CCN(c4ncc(F)cn4)CC34CC4)c3c(Cl)cccc32)cc1 [Compound 90, 4-chloro-1-[4-(1,1-difluoro-2-methyl-propyl)phenyl]sulfonyl-3-[7-(5-fluoropyrimidin-2-yl)-4,7-diazaspiro [2.5]octan-4-yl]indazole]	≤ 1000 nM
O=S(=O)(c1ccc(C(F)(F)C2CC2)cc1)n1nc(N2CCN(c3ncc(F)cn3)CC23CC3)c2c(Cl)cccc21 [Compound 92, 4-chloro-1-((4-(cyclopropyldifluoromethyl)phenyl)sulfonyl)-3-(7-(5-fluoropyrimidin-2-yl)-4,7-diazaspiro [2.5]octan-4-yl)-1H-indazole]	≤ 1000 nM
